Measured values reported in patent publication US11236047B2 (ASTEX THERAPEUTICS LIMITED, priority 2017, dated 2022).
Read-outs that look alike come from different tables or passages of the source. Values belong to the compound of their own block, whether it stands above or below them.

Tests used:
[1] = tested on: SJSA-1 cells (p53 wild-type, MDM2 amplified osteosarcoma); assay: Protocol A: SJSA-1 growth inhibition (sulphorhodamine B)
[2] = tested on: SN40R2 cells (p53 mutated, MDM2 amplified osteosarcoma); assay: Protocol A: SN40R2 growth inhibition (sulphorhodamine B)
MDM2-p53 interaction = MDM2-p53 interaction (Homo sapiens (Human), UniProt Q00987); conditions: for inhibition at 0.001 µM: read-out: MDM2 % inhibition @0.0010
MDM2-p53 interaction, sequence (Q00987 whole entry): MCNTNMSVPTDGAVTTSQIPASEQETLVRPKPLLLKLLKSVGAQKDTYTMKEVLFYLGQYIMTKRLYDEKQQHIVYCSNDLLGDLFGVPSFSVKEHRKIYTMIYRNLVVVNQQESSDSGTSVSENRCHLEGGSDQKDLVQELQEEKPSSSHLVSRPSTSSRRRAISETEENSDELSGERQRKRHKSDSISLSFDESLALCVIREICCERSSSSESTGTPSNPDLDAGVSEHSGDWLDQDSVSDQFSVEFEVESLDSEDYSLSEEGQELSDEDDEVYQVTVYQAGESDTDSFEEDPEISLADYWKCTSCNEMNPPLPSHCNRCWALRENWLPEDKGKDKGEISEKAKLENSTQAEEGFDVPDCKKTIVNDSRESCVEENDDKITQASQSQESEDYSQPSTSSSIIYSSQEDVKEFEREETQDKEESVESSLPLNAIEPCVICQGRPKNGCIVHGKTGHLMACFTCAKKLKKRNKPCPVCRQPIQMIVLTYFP

SJSA-1 cells = assay: Protocol B: SJSA-1 CellTiter-Glo luminescent cell viability assay
Molm-13 AML cell line [3] = assay: Combination protocol for measuring apoptosis (cleaved caspase-3), Molm-13; assay type: cell-based; conditions: SGI-110 10 nM daily for three days, isoindolinone 20 nM added on third day, 24 hrs, alone or combined, vehicle control 8.72
Description: (§1) Combination Protocol for Measuring Apoptosis
(§2) SGI-110 was added daily for three days. […] Percentage apoptosis was measured as percentage fluorescent cells with cleaved caspase-3 in a Guava easyCyte HT cytometer (Millipore). Cleaved caspase-3 staining was recorded in the FL1 channel, with unstained and DMSO control wells being used to set the gated stained and unstained cell populations.
(§3) Table 1 summarises the % apoptosis seen in Molm-13, MV-4-11, or ML-2 with the indicated compound treatments.

MV-4-11 AML cell line [4] = assay: Combination protocol for measuring apoptosis (cleaved caspase-3), MV-4-11; assay type: cell-based; conditions: SGI-110 10 nM daily for three days, isoindolinone 20 nM added on third day, 24 hrs, alone or combined, vehicle control 13.69
Description: as §1, §2, §3

ML-2 AML cell line [5] = assay: Combination protocol for measuring apoptosis (cleaved caspase-3), ML-2; assay type: cell-based; conditions: SGI-110 10 nM daily for three days, isoindolinone 100 nM added on third day, 24 hrs, alone or combined, vehicle control 3.32
Description: as §1, §2, §3

Molm-13 AML cell line [6] = assay: Combination protocol for proliferation in dose matrix (Alamar blue), Molm-13; assay type: cell-based
Description: (§4) Combination Protocol for Proliferation in Dose Matrix
(§5) AML cell lines were seeded onto 96-well tissue culture plates in triplicates at a concentration of 1×10^4 cells/well. […] At the end of compound treatment, 20 μl Alamar blue was added. After further 5-6 hr incubation at 37° C. the plates were read on a Spectramax Gemini reader (Molecular Devices; excitation 535 nm, emission 590 nm).

MV-4-11 AML cell line [7] = assay: Combination protocol for proliferation in dose matrix (Alamar blue), MV-4-11; assay type: cell-based
Description: as §4, §5

ML-2 AML cell line [8] = assay: Combination protocol for proliferation in dose matrix (Alamar blue), ML-2; assay type: cell-based
Description: as §4, §5

SN40R2 cells = assay: Protocol B: SN40R2 CellTiter-Glo luminescent cell viability assay; conditions: read-out: SN40R2 % inhibition at 10, Protocol B, SN40R2, at 10 μM
LINE-1 DNA methylation = LINE-1 DNA methylation in blood samples, repeat dose study; assay type: in vivo; conditions: monkeys; 3 mg/kg subcutaneously 3x weekly; until day 22; p<0.05 vs level prior to initial dosing
[9] = Tolerability of subcutaneous SGI-110 formulation in rabbits; assay type: in vivo
Description: (§6) The formulation was well-tolerated in the species tested. […] Rabbits tolerated the 5-day regimen well, up to a dose of 1.5 mg/kg/day, which is equivalent to […] in humans, and the weekly regimen up to a dose of 1.5 mg/kg/week for 3 weeks.

[10] = Tolerability of subcutaneous SGI-110 formulation in cynomolgus monkeys; assay type: in vivo
Description: as §6
(§7) Cynomolgus monkeys tolerated the weekly regimen well, up to a dose of 3.0 mg/kg/week for 3 weeks, which is equivalent to […]. Rats tolerated much higher doses: 30 mg/kg/day over 5 days; and 20 mg/kg twice weekly for 4 weeks.

[11] = Tolerability of subcutaneous SGI-110 formulation in rats; assay type: in vivo
Description: as §6, §7

[12] = in vivo, sc
[13] = Repeat dose pharmacokinetics in monkeys; conditions: monkey, in vivo, sc, 3 mg/kg subcutaneously 3x weekly, day 15
in vivo = conditions: monkey, 10 mg/kg
[14] = Homo sapiens, SJSA-1, read-out: SJSA-1 IC50 (μM) (Protocol A), SJSA-1, Protocol A
[15] = read-out: SN40R2 IC50 (μM) (Protocol A)
[16] = read-out: SJSA-1 IC50 (μM) (Protocol A), SJSA-1, Protocol A
[17] = SGI-110 0 μM + isoindolinone 0.001 μM
[18] = SGI-110 0 μM + isoindolinone 0.003 μM
[19] = SGI-110 0 μM + isoindolinone 0.01 μM
[20] = SGI-110 0 μM + isoindolinone 0.03 μM
[21] = SGI-110 0 μM + isoindolinone 0.1 μM
[22] = SGI-110 0 μM + isoindolinone 0.3 μM
[23] = SGI-110 0 μM + isoindolinone 1 μM
[24] = SGI-110 0 μM + isoindolinone 3 μM
[25] = SGI-110 0 μM + isoindolinone 10 μM
[26] = Homo sapiens, SJSA-1, read-out: SJSA-1 IC50 (μM), Protocol A, SJSA-1
[27] = read-out: SJSA1 IC50, Protocol B, SJSA-1

SMILES: CO[C@]1(c2ccc(Cl)cc2)c2c(F)cc(C(C)(O)C3CCN(C(=O)CO)CC3)cc2C(=O)N1Cc1ccc(Cl)cn1 (single isomer, unassigned) [Example 296]
IC50 [1, 14]: 0.11 µM
IC50 [2, 15]: 32 µM
MDM2 % at stated concentration (MDM2-p53 interaction): 62%@0.0010
IC50 (SJSA-1 cells; Homo sapiens, SJSA-1, read-out: SJSA1 IC50 (μM) (Protocol B), SJSA-1, Protocol B): 0.16 µM

SMILES: CO[C@]1(c2ccc(Cl)cc2)c2ccc(C(C)(O)CN3CCOCC3=O)cc2C(=O)N1Cc1ccc(Cl)cn1 (single isomer, unassigned) [Example 328]
IC50 [1, 16]: 2.3 µM
MDM2 % at stated concentration (MDM2-p53 interaction; at 0.10 μM): 42%@0.10

SMILES: CO[C@]1(c2ccc(Cl)cc2)c2ccc(C(C)(O)CN3CC(=O)NC3=O)cc2C(=O)N1Cc1ccc(Cl)cn1 (single isomer, unassigned) [Example 329]
IC50 [1, 16]: 3 µM
MDM2 % at stated concentration (MDM2-p53 interaction; at 0.30 μM): 61%@0.30

SMILES: CC(O)(c1cc(F)c2c(c1)C(=O)N(Cc1ccc(Cl)cn1)[C@@]2(OCC1(C#N)CC1)c1ccc(Cl)cc1)C1CCN(CCO)CC1 (single isomer, unassigned) [Example 420]
IC50 [1, 14]: 0.49 µM
IC50 [2, 15]: 17 µM
MDM2 % at stated concentration (MDM2-p53 interaction): 68%@0.0010

SMILES: CC[C@@](O)(c1cc(F)c2c(c1)C(=O)N([C@H](c1ccc(Cl)cc1)[C@H](C)C(=O)O)[C@@]2(OC)c1ccc(Cl)cc1)C1CCOCC1 [(2S,3S)-3-(4-chlorophenyl)-3-[(1R)-1-(4-chlorophenyl)-7-fluoro-5-[(1S)-1-hydroxy-1-(oxan-4-yl)propyl]-1-methoxy-3-oxo-2,3-dihydro-1H-isoindol-2-yl]-2-methylpropanoic Acid]
% Apoptosis (Molm-13 AML cell line [3]): 32.48%
% Apoptosis (MV-4-11 AML cell line [4]): 30.83%
% Apoptosis (ML-2 AML cell line [5]): 15.15%
Percentage viability relative to DMSO control (Molm-13 AML cell line [6]; [17]): 98%
Percentage viability relative to DMSO control (Molm-13 AML cell line [6]; [18]): 99%
Percentage viability relative to DMSO control (Molm-13 AML cell line [6]; [19]): 84%
Percentage viability relative to DMSO control (Molm-13 AML cell line [6]; [20]): 52%
Percentage viability relative to DMSO control (Molm-13 AML cell line [6]; [21]): 37%
Percentage viability relative to DMSO control (Molm-13 AML cell line [6]; [22]): 27%
Percentage viability relative to DMSO control (Molm-13 AML cell line [6]; [23]): 24%
Percentage viability relative to DMSO control (Molm-13 AML cell line [6]; [24]): 22%
Percentage viability relative to DMSO control (Molm-13 AML cell line [6]; [25]): 15%
Percentage viability relative to DMSO control (MV-4-11 AML cell line [7]; [17]): 92%
Percentage viability relative to DMSO control (MV-4-11 AML cell line [7]; [18]): 82%
Percentage viability relative to DMSO control (MV-4-11 AML cell line [7]; [19]): 70%
Percentage viability relative to DMSO control (MV-4-11 AML cell line [7]; [20]): 54%
Percentage viability relative to DMSO control (MV-4-11 AML cell line [7]; [21]): 29%
Percentage viability relative to DMSO control (MV-4-11 AML cell line [7]; [22]): 16%
Percentage viability relative to DMSO control (MV-4-11 AML cell line [7]; [23]): 13%
Percentage viability relative to DMSO control (MV-4-11 AML cell line [7]; [24]): 13%
Percentage viability relative to DMSO control (MV-4-11 AML cell line [7]; [25]): 12%
Percentage viability relative to DMSO control (ML-2 AML cell line [8]; [17]): 100%
Percentage viability relative to DMSO control (ML-2 AML cell line [8]; [18]): 94%
Percentage viability relative to DMSO control (ML-2 AML cell line [8]; [19]): 78%
Percentage viability relative to DMSO control (ML-2 AML cell line [8]; [20]): 59%
Percentage viability relative to DMSO control (ML-2 AML cell line [8]; [21]): 47%
Percentage viability relative to DMSO control (ML-2 AML cell line [8]; [22]): 30%
Percentage viability relative to DMSO control (ML-2 AML cell line [8]; [23]): 16%
Percentage viability relative to DMSO control (ML-2 AML cell line [8]; [24]): 15%
Percentage viability relative to DMSO control (ML-2 AML cell line [8]; [25]): 9%

SMILES: CCC(O)(c1cc(F)c2c(c1)C(=O)N(Cc1ccc(C#N)cn1)[C@@]2(OC1CC(O)C1)c1ccc(Cl)cc1)[C@H]1CC[C@H](O)CC1 (stereo partly drawn) [Example 518, 6-{[(1R)-1-(4-chlorophenyl)-7-fluoro-5-{1-hydroxy-1-[trans-4-hydroxycyclohexyl]propyl}-3-oxo-1-[cis-3-hydroxycyclobutoxy]-2,3-dihydro-1H-isoindol-2-yl]methyl}pyridine-3-carbonitrile]
IC50 [1, 26]: 0.058 µM
inhibition at 50 µM ([2]; read-out: SN40R2 % inhibition at 50): 46%
inhibition at 0.001 µM (MDM2-p53 interaction): 79%
IC50 (SJSA-1 cells; [27]): 0.065 µM
inhibition at 10 µM (SN40R2 cells): 10%

SMILES: Nc1ncn([C@H]2C[C@H](OP(=O)(O)OC[C@H]3O[C@@H](n4cnc5c(=O)[nH]c(N)nc54)C[C@@H]3O)[C@@H](CO)O2)c(=O)n1 [SGI-110, 2′-deoxy-5-azacytidylyl-(3′5′)-2′-deoxy-guanosine]
LINE-1 DNA methylation (LINE-1 DNA methylation): Decreases in LINE-1 DNA methylation
tolerated dose, once daily subcutaneous dose for 5 days ([9]; SGI-110 sodium salt 100 mg/mL in glycol/glycerin/ethanol (65:25:10)): ≤ 1.5 mg/kg/day
tolerated dose, once weekly subcutaneous regimen ([9]; for 3 weeks): ≤ 1.5 mg/kg/week
tolerated dose, once weekly subcutaneous regimen ([10]; cynomolgus monkeys, for 3 weeks): ≤ 3.0 mg/kg/week
equivalent dose of tolerated weekly regimen dose ([10]; from cynomolgus monkeys 3.0 mg/kg/week): 36 mg/kg/week
tolerated dose, once daily subcutaneous regimen ([11]; over 5 days): 30 mg/kg/day
tolerated dose, twice weekly subcutaneous regimen ([11]; twice weekly for 4 weeks): 20 mg/kg
% Apoptosis (Molm-13 AML cell line [3]): 36.08%
% Apoptosis (MV-4-11 AML cell line [4]): 26.12%
% Apoptosis (ML-2 AML cell line [5]): 3.93%
myelosuppression and recovery [12]: less myelosuppression and faster recovery

The remaining lines, values ahead:

IC50 [1, 16]: 7.1 µM
MDM2 % at stated concentration (MDM2-p53 interaction; at 0.30 μM): 36%@0.30
SMILES: CO[C@]1(c2ccc(Cl)cc2)c2ccc(C(C)(O)CN3CC(=O)NC3=O)cc2C(=O)N1Cc1ccc(Cl)cn1 (single isomer, unassigned) [Example 330]

IC50 [1, 26]: 0.11 µM
IC50 ([2]; read-out: SN40R2 IC50 (μM)): 22 µM
inhibition at 0.001 µM (MDM2-p53 interaction): 65%
IC50 (SJSA-1 cells; [27]): 0.19 µM
SMILES: Cn1cc(C(O)(c2cc(F)c3c(c2)C(=O)N(Cc2ccc(C#N)cn2)[C@@]3(O[C@H]2CCOC2)c2ccc(Cl)cc2)C(F)(F)F)cn1 (stereo partly drawn) [Example 428, 6-{[(1R)-1-(4-chlorophenyl)-7-fluoro-3-oxo-1-[(3S)-oxolan-3-yloxy]-5-[2,2,2-trifluoro-1-hydroxy-1-(1-methyl-1H-pyrazol-4-yl)ethyl]-2,3-dihydro-1H-isoindol-2-yl]methyl}pyridine-3-carbonitrile]

AUC at 15 day [13]: 592 ng·h/mL
Cmax at 15 day [13]: 181 ng/mL
AUC (in vivo): 1470 ng·h/mL
Cmax (in vivo): 1130 ng/mL
SMILES: Nc1ncn([C@H]2CC(OP(=O)(O)OC[C@H]3O[C@@H](n4cnc5c(=O)[nH]c(N)nc54)CC3O)[C@@H](CO)O2)c(=O)n1 (some centres unmarked) [compound 1-1]

AUC at 15 day [13]: 99 ng·h/mL
Cmax at 15 day [13]: 28 ng/mL
AUC (in vivo): 340 ng·h/mL
Cmax (in vivo): 160 ng/mL
SMILES: Nc1ncn([C@H]2C[C@H](O)[C@@H](CO)O2)c(=O)n1 [decitabine, 5-aza-2′-deoxycytidine]
